Laboratory results reported in ChEMBL document CHEMBL2434905, “2-Amino-6-chloro-3,4-dihydroquinazoline: A novel 5-HT3 receptor antagonist with antidepressant character” (Bioorg Med Chem Lett, 2013).

Key:
[1] = target: T1, 5-hydroxytryptamine receptor 3A (Homo sapiens, UniProt P46098); assay: Displacement of [3H]GR65630 from human 5-HT3A receptor expressed in HEK293 cells by liquid scintillation counting analysis; assay type: cell-based
T1 sequence (P46098 whole entry): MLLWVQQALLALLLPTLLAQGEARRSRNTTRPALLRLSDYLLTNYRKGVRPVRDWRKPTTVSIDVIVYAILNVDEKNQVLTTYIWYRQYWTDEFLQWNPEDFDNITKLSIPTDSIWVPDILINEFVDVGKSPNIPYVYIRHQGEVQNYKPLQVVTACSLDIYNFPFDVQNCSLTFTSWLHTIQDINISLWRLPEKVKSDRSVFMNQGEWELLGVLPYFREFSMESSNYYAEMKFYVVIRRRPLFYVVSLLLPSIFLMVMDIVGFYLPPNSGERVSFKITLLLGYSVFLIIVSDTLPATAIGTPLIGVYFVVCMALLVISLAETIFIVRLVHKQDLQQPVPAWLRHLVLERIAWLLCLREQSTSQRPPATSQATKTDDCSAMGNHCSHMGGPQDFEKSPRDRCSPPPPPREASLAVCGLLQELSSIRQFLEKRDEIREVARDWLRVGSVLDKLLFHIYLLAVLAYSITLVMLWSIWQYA

[2] = target: T2, 5-hydroxytryptamine receptor 3A (Mus musculus, UniProt P23979); assay: Displacement of [3H]LY278584 from mouse 5-HT3A receptor
T2 sequence (P23979 whole entry): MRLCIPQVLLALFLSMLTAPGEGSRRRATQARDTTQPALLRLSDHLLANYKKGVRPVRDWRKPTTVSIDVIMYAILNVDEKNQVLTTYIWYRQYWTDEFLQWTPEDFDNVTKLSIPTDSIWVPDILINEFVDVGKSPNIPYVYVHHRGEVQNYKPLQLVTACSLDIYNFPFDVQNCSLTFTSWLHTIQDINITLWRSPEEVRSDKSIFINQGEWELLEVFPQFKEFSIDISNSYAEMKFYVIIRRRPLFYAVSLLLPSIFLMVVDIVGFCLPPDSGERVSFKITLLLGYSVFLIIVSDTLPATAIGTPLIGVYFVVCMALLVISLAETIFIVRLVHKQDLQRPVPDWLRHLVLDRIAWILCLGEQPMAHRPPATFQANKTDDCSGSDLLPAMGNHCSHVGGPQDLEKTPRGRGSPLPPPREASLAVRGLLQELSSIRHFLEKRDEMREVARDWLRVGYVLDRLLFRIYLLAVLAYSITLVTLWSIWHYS

[3] = target: T1, 5-hydroxytryptamine receptor 3A; assay: Displacement of [3H]GR65630 from 5-HT3 receptor (unknown origin) expressed in mouse/rat NG108-15 cells after 30 mins by liquid scintillation counting analysis; assay type: cell-based

Compound: CN1CCN2c3ncccc3Cc3ccccc3C2C1 (stereo not drawn) [MIRTAZAPINE]
- Ki [1]: 2900 nM

Compound: NC1=Nc2cc(Cl)ccc2CN1
- Ki [2]: 1970 nM

Compound: NC(N)=Nc1cccc(Cl)c1
- Ki [3]: 32 nM
